Test results as given in ChEMBL document CHEMBL1136570, “Synthesis and dopamine transporter affinity of chiral 1-[2-[bis(4-fluorophenyl)methoxy]ethyl]-4-(2-hydroxypropyl)piperazines as potential cocaine abuse therapeutic agents” (Bioorg Med Chem Lett, 2003).

Tests used:
[1] = molecular target: Sodium-dependent dopamine transporter (Rattus norvegicus, UniProt P23977); experiment: Binding affinity for dopamine transporter (DAT)
[2] = molecular target: Sodium-dependent serotonin transporter (Rattus norvegicus, UniProt P31652); experiment: Binding affinity for serotonin transporter (SERT)
Sequence of Sodium-dependent serotonin transporter (P31652 whole entry): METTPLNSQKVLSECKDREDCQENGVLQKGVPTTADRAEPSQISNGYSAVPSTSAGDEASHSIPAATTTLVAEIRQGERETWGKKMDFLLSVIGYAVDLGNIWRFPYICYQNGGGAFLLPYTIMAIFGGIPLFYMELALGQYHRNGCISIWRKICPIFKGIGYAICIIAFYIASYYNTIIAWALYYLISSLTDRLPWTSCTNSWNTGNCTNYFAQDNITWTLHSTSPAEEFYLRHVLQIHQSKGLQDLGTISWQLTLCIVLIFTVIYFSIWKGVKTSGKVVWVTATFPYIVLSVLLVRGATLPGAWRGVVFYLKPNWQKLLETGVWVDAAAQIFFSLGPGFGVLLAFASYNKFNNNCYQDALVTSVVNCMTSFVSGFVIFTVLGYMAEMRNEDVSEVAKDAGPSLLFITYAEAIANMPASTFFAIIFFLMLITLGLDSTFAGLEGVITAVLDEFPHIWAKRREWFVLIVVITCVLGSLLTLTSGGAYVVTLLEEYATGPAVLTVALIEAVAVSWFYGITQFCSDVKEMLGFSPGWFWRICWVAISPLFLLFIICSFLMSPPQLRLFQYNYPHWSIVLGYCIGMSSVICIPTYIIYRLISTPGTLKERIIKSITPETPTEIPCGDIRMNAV

[3] = molecular target: Monoamine transporters; serotonin & dopamine (Rattus norvegicus) (UniProt P31652+P23977); experiment: Selectivity expressed as ratio of affinity for SERT/DAT; format: protein assay
Sequence of Monoamine transporters; serotonin & dopamine (Rattus norvegicus) (P23977 whole entry, looked up): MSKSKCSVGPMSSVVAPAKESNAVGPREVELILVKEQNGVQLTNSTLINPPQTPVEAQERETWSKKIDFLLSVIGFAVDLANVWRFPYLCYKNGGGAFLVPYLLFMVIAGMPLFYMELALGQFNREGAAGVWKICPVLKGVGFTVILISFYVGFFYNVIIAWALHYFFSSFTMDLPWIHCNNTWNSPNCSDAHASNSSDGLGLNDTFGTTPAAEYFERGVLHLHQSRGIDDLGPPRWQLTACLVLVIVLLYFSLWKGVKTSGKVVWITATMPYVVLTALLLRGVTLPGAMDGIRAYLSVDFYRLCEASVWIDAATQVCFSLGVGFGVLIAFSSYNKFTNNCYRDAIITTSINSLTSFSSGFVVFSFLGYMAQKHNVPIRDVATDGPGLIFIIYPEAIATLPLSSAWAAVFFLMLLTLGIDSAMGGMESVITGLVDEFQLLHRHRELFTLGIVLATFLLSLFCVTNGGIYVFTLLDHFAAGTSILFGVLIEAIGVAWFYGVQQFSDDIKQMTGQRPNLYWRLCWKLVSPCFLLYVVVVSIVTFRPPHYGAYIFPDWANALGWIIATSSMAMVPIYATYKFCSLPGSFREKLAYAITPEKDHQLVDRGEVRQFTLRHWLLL
Sequence of Monoamine transporters; serotonin & dopamine (Rattus norvegicus) (P31652 whole entry, looked up): as the sequence (P31652 whole entry) above

Sequence of Sodium-dependent dopamine transporter (P23977 whole entry): as the sequence (P23977 whole entry, looked up) above

C[C@H](O)[C@@H](c1ccccc1)N1CCN(CCOC(c2ccc(F)cc2)c2ccc(F)cc2)CC1
Ki [1]: 36 nM | Ki [2]: 583 nM | Ratio [3]: 16

CCN1CCN(CCOC(c2ccc(F)cc2)c2ccc(F)cc2)CC1
Ki [1]: 34 nM | Ki [2]: 2090 nM | Ratio [3]: 61

O[C@H](Cc1ccccc1)CN1CCN(CCOC(c2ccc(F)cc2)c2ccc(F)cc2)CC1
Ratio [3]: 14

C[C@@H](O)CN1CCN(CCOC(c2ccc(F)cc2)c2ccc(F)cc2)CC1
Ki [1]: 76 nM | Ki [2]: 588 nM | Ratio [3]: 8

C[C@H](O)CN1CCN(CCOC(c2ccc(F)cc2)c2ccc(F)cc2)CC1
Ki [1]: 23 nM | Ki [2]: 981 nM | Ratio [3]: 43

O[C@@H](Cc1ccccc1)CN1CCN(CCOC(c2ccccc2)c2ccccc2)CC1
Ratio [3]: 939

C[C@@H](O)[C@H](c1ccccc1)N1CCN(CCOC(c2ccc(F)cc2)c2ccc(F)cc2)CC1
Ki [1]: 13 nM | Ki [2]: 565 nM | Ratio [3]: 43

C[C@@](O)(CN1CCN(CCOC(c2ccc(F)cc2)c2ccc(F)cc2)CC1)c1ccccc1
Ki [1]: 5.6 nM | Ki [2]: 281 nM | Ratio [3]: 50

CCCN1CCN(CCOC(c2ccc(F)cc2)c2ccc(F)cc2)CC1
Ki [1]: 40 nM | Ki [2]: 888 nM | Ratio [3]: 22

C[C@H](O)CN1CCN(CCOC(c2ccccc2)c2ccccc2)CC1
Ki [1]: 48 nM | Ki [2]: 10400 nM | Ratio [3]: 217

C[C@](O)(CN1CCN(CCOC(c2ccc(F)cc2)c2ccc(F)cc2)CC1)c1ccccc1
Ki [1]: 140 nM | Ki [2]: 520 nM | Ratio [3]: 4

OC(Cc1ccccc1)CN1CCN(CCOC(c2ccc(F)cc2)c2ccc(F)cc2)CC1 (racemic)
Ratio [3]: 54

CC(O)(CN1CCN(CCOC(c2ccc(F)cc2)c2ccc(F)cc2)CC1)c1ccccc1 (racemic)
Ki [1]: 20 nM | Ki [2]: 298 nM | Ratio [3]: 15

C=CCN1CCN(CCOC(c2ccc(F)cc2)c2ccc(F)cc2)CC1
Ki [1]: 65 nM | Ki [2]: 1650 nM | Ratio [3]: 25

C[C@@H](O)CN1CCN(CCOC(c2ccccc2)c2ccccc2)CC1
Ki [1]: 44 nM | Ki [2]: 12900 nM | Ratio [3]: 293

O[C@H](Cc1ccccc1)CN1CCN(CCOC(c2ccccc2)c2ccccc2)CC1
Ratio [3]: 73

O[C@@H](Cc1ccccc1)CN1CCN(CCOC(c2ccc(F)cc2)c2ccc(F)cc2)CC1
Ratio [3]: 307
